From US20250281627A1, “CANCER-TARGETING PEPTIDE, PRODRUG NANOPARTICLES COMPRISING SAME, AND PHARMACEUTICAL COMPOSITION COMPRISING SAME FOR CANCER PREVENTION OR TREATMENT” (priority 2022, published 2025)
Counter-ions that a name gives are not always drawn. Like-named read-outs stand apart in the source and are kept apart here. Residues, ends and D or L forms follow the SMILES beside them. No end group written: not given here. *: point of attachment. Doxorubicin(3'-N) = COc1cccc2c1C(=O)c1c(O)c3c(c(O)c1C2=O)C[C@@](O)(C(=O)CO)C[C@@H]3O[C@H]1C[C@H](N*)[C@H](O)[C@H](C)O1; acyl = not defined here; DOX = doxorubicin

How the values were obtained:
[1] = test system: T1, FRRL-DOX conjugate / prodrug nanoparticles of Example 4 (N-acylated Phe-Arg-Arg-Leu conjugated with doxorubicin)
T1 sequence: FRRG

[2] = test system: HT29 tumor-bearing BALB/c nu/nu mice; test: Distribution of prodrug nanoparticles in vivo (fluorescence imaging, ex vivo organs, tissue sections)
Experimental: After 3, 6 and 9 hours of the drug injection, the test groups were imaged using an IVIS Lumina Series III system. After euthanasia, liver, lung, spleen, kidney, heart and tumor tissues were recovered.
The obtained tissues were sliced into 10 μm-thick sections, which were mounted individually on a slide glass, and washed tice with DPBS. Then, after staining with […] for 20 minutes, fluorescence signals were observed by CLSM.

[3] = test system: HT29 tumor-bearing BALB/c nu/nu mice; test: Anticancer effect in animal model of cancer
Experimental: (§3) 1×10^7 HT29 cells were subcutaneously injected into the left flank of the 5-week-old male BALB/c nu/nu mice. An animal model of cancer was prepared by breeding the mice until the tumor size grew to about 60 to 80 mm^3.
(§4) Test groups 6 to 8 were prepared by injecting an anticancer agent (DOX) (3 mg/kg) or the prodrug nanoparticles of Example 4 (4 or 10 mg/kg based on DOX concentration) to the animal model of cancer via the tail vein once in 3 days at the same time (n=5 for each test group). The overall treatment period was 26 days, and the number of drug administration was 8 times.
(§5) After the treatment period, tumor volume, body weight and survival rate of each test group were measured every 2 days. After euthanasia, liver, lung, spleen, kidney, heart and cancer tissues were recovered and subjected to histological and TUNEL assay.
(§6) The tumor volume was calculated from the longest diameter×(the shortest diameter)^2×0.53 of the cancer tissue, and a tumor volume larger than 1,000 mm^3 was judged as death.
(§7) For histological analysis, each of the recovered liver, lung, spleen, kidney, heart and cancer tissues was fixed with 4% paraformaldehyde for 15 minutes, embedded in wax, and then sliced to 10 μm-thick sections. Then, after staining with H&E, the morphological damage to the tissues was analyzed by imaging with an optical microscope.
(§8) The cancer tissue was stained by TUNEL (terminal deoxynucleotidyl transferase dUTP nick end labeling) analysis for visualization of the apoptotic region.

[4] = test system: HT29 cells; test: cells; assay type: cell-based, human; conditions: 48 hours; for IC50: CCK-8
Experimental: (§1) In addition, cytotoxicity was investigated using CCK-8 (cell counting kit-8). Specifically, 1×10^4 HT29 cells and 0.5×10^4 H9C2 cells were seeded onto a 96-well plate, respectively, and stabilized by culturing for 24 hours. A single administration group, drug administration groups and a control group were obtained by administering the anticancer agent (DOX) alone (0.01 to 100 μM) or together with the prodrug nanoparticles of Example 4 and Comparative Example 3 (0.01 to 100 μM), respectively, to each well and incubating at 37° C. for 48 hours. After the incubation was completed, a culture medium containing a 10% CCK-8 solution was added. After conducting reaction for 20 minutes, analysis was made with a microplate reader at a wavelength of 450 nm. After plotting cell survivability depending on concentration, IC50 (half-maximal inhibitory concentration) values were obtained for the single administration group, drug administration groups and control group using the GraphPad Prism 8 software (GraphPad Software, San Diego, CA, USA).

[5] = test system: tumor-free BALB/c mice; test: Toxicity in vivo, single administration; conditions: single i.v. administration
Experimental: Test groups 9 to 12 were prepared by injecting an anticancer agent (DOX) (3 or 4 mg/kg) or the prodrug nanoparticles of Example 4 (4 or 10 mg/kg based on DOX concentration) once to tumor-free BALB/c mice (5-week-old) via the tail vein (n=5 for each test group).
Tumor volume, body weight and survival rate were measured every day after injection of the drug to the test groups. 8 days later, the mice were euthanized and liver, lung, spleen, kidney, heart and cancer tissues were recovered. Each of the recovered liver, lung, spleen, kidney, heart and cancer tissues was fixed with 4% paraformaldehyde for 15 minutes, embedded in wax, and then sliced to 10 μm-thick sections. Then, after staining with H&E, the morphological damage to the tissues was analyzed by imaging with an optical microscope.
(§9) For evaluation of hematotoxicity, 1 mL of blood was taken from each test group, and blood plasma was separated by centrifuging at 4,500 rpm for 20 minutes. Blood analysis was performed according to the instructions of KNOTUS Co., Ltd. (Incheon, Korea).

[6] = Cytotoxicity CCK-8; assay type: cell-based, rat; conditions: rat, H9C2 cells; at 1 to 100 μM, 48 hours; read-out: survival rate of normal cells
Experimental: as §1

[7] = test system: H9C2 cells; test: Cytotoxicity CCK-8; assay type: cell-based, rat; conditions: for IC50: 48 hours, CCK-8, normal cells (cardiomyocytes)
Experimental: as §1

[8] = test system: tumor-free BALB/c mice; conditions: multiple administration; for body weight change: once in 3 days, 8 times
Experimental: 8 days later, the mice were euthanized and liver, lung, spleen, kidney, heart and cancer tissues were recovered. Each of the recovered liver, lung, spleen, kidney, heart and cancer tissues was fixed with 4% paraformaldehyde for 15 minutes, embedded in wax, and then sliced to 10 μm-thick sections. Then, after staining with H&E, the morphological damage to the tissues was analyzed by imaging with an optical microscope.
as §9

[9] = test system: HT29 colon cancer cells; test: Cellular uptake and intranuclear localization (CLSM); assay type: cell-based, human; conditions: 5 μM
Experimental: The cellular uptake and intranuclear localization of the prodrug nanoparticles (5 μM) were analyzed using HT29 colon cancer cells. In order to investigate the intracellular behavior and intracellular interaction of the prodrug nanoparticles, 2×10^5 HT29 cells were seeded onto a glass-bottomed confocal dish. After stabilizing the cells by culturing for 24 hours, they were treated with the prodrug nanoparticles of Examples 4 to 6 and Comparative Example 3 (5 μM), and drug administration groups 1, 2 and 3 (FRRL-DOX, FRRLG-DOX, FLRRG-DOX) and a control group (FRRG-DOX) were obtained by incubating at 37° C. for 0, 24 and 48 hours. […] Each group was imaged by CLSM to obtain a fluorescence image, and fluorescence intensity was quantified from the fluorescence image to investigate the distribution of the prodrug nanoparticles using the Image-Pro software (Media Cybernetics, Rockville, MD, USA).

[10] = test system: HT29 cells; test: Degradation after cellular uptake (MALDI-TOF of cell filtrate); assay type: cell-based, human; conditions: 100 μM, 48 hours
Experimental: In order to further investigate whether the prodrug nanoparticles are degraded after cellular uptake, 1×10^6 HT29 cells were seeded onto a 100-mm cell culture dish and stabilized by culturing for 24 hours. After administering the prodrug nanoparticles of Examples 4 to 6 and Comparative Example 3 (100 μM) to the cells, drug administration groups 1, 2 and 3 (FRRL-DOX, FRRLG-DOX, FLRRG-DOX) and a control group (FRRG-DOX) were obtained by incubating at 37° C. for 48 hours. Each group was washed with PBS and dispersed in distilled water (H2O). The dispersion was filtered through a 0.45-μm syringe filter, and the recovered filtrate was subjected to mass analysis by MALDI-TOF.

[11] = test system: HT29 tumor-bearing BALB/c nu/nu mice; conditions: mouse, in vivo, iv
Experimental: as §3, §4, §5, §6, §7, §8

[12] = test system: Cathepsin B-inhibited cells (HT29-Inh); test: Cell-specific activity, DOX fluorescence distribution (CLSM); assay type: cell-based, human; conditions: HT29-Inh cells (Z-Phe-Ala-FMK 20 μM pretreated), 5 μM, 48 hours
Experimental: (§2) Then, experiment was performed as follows to analyze specific activity for cells. First, 2×10^5 HT29 cells and 2×10^5 H9C2 cells were seeded onto a glass-bottomed confocal dish, respectively. Cathepsin B-inhibited cells (HT29-Inh) were prepared by pretreating HT29 cells with Z-Phe-Ala-FMK (20 μM) for 24 hours. After stabilizing the cells by culturing for 24 hours, and administering the anticancer agent (DOX) alone (5 μM) or together with the prodrug nanoparticles of Example 4 and Comparative Example 3 (5 μM), respectively, a single administration group, drug administration groups and a control group were obtained by incubating at 37° C. for 48 hours. […] Each group was imaged by CLSM to obtain a fluorescence image, and fluorescence intensity was quantified from the fluorescence image to investigate the distribution of the prodrug nanoparticles using the Image-Pro software (Media Cybernetics, Rockville, MD, USA).

[13] = test system: H9C2 cells; test: as above; assay type: cell-based, rat; conditions: 5 μM, 48 hours
Experimental: as §2

[14] = target: lysosome enzymes other than cathepsin B; test: cell-based or functional assay
[15] = test group 4, 4 mg/kg based on DOX
[16] = i.v. once in 3 days, test group 6

## Cathepsin B (purchased from R&D Systems), enzyme in solution
[1]
  RP-HPLC peaks of conjugate and cleavage product over reaction time: a peak of L-DOX was observed at 14.7 minutes 3 hours after the reaction. The peak of the FRRL-DOX conjugate began to decrease and was not detected at all 24 hours after the reaction

## COc1cccc2c1C(=O)c1c(O)c3c(c(O)c1C2=O)C[C@@](O)(C(=O)CO)C[C@@H]3O[C@H]1C[C@H](NC(=O)[C@H](CC(C)C)NC(=O)[C@H](CCCNC(=N)N)NC(=O)[C@H](CCCNC(=N)N)NC(=O)[C@H](Cc2ccccc2)NC(C)=O)[C@H](O)[C@H](C)O1 [Example 4] (Ac-FRRL-{Doxorubicin(3'-N)})
[2]; 4 mg/kg based on DOX, i.v., 9 hours, vs DOX alone or Comparative Example 3
  accumulation efficiency for cancer tissues (in vivo fluorescence imaging): significantly high accumulation efficiency for cancer tissues
[2]; 4 mg/kg based on DOX, i.v., test group 4 vs 1
  cancer-targeting ability (fluorescence of isolated cancer tissue), times higher than DOX: 2.3 times
[2]; 4 mg/kg based on DOX, i.v., test group 4 vs 2
  cancer-targeting ability (fluorescence of isolated cancer tissue), times higher than Comparative Example 3: 1.4 times
[2]; 4 and 10 mg/kg based on DOX, i.v., test groups 4 and 5
  accumulation in cancer tissues relative to kidney tissues: ≥ 2 times
[2]; first of two printed values (4 and 10 mg/kg groups)
  accumulation efficiency for liver tissues, times lower than Comparative Example 3: 2.4 times
[2]; second of two printed values (4 and 10 mg/kg groups)
  accumulation efficiency for liver tissues, times lower than Comparative Example 3: 4.8 times
[2]; [15]
  red fluorescence in cancer tissue sections, times stronger than test group 1: 6.7 times
  red fluorescence in cancer tissue sections, times stronger than test group 3: 2.6 times
[3]; repeated i.v. administration in tumor-bearing mice
  systemic toxicity: no severe systemic toxicity
[4]
  IC50: 6.13 µM
[4]; at 1 to 100 μM
  survival rate of cancer cells: 0%
[5]
  histochemical analysis of organ tissues (H&E): no damaged organ tissue
[5]; 4 and 10 mg/kg based on DOX
  body weight change: no significant change in body weight
[6]
  viability at 48 h: 80%
[7]
  IC50: 182 µM
[8]
  hematotoxicity: no hematotoxicity
  histochemical analysis of organ tissues (H&E): no significant damage of organ tissues
  body weight change: no body weight change
[8]; 4 and 10 mg/kg based on DOX
  all the mice survived healthily for: more than 26 days

## COc1cccc2c1C(=O)c1c(O)c3c(c(O)c1C2=O)C[C@@](O)(C(=O)CO)C[C@@H]3O[C@H]1C[C@H](NC(=O)CNC(=O)[C@H](CCCNC(=N)N)NC(=O)[C@H](CCCNC(=N)N)NC(=O)[C@H](Cc2ccccc2)NC(C)=O)[C@H](O)[C@H](C)O1 [Comparative Example 3] (Ac-FRRG-{Doxorubicin(3'-N)})
[2]; test group 2, 4 mg/kg based on DOX, i.v.
  accumulation in liver tissues relative to cancer tissues: 2.4 times
[2]; test group 3, 10 mg/kg based on DOX, i.v.
  accumulation in liver tissues relative to cancer tissues: 6.7 times
[4]
  IC50: 14.1 µM
[7]
  IC50: 158 µM

## Example 6: conjugate of N-terminally acylated peptide Phe-Leu-Arg-Arg-Gly (SEQ ID NO: 3) and doxorubicin; self-assembled prodrug nanoparticles (acyl-FLRRG-{DOX}; reading uncertain; also: printed as FLRRG-DOX)
[9]; 48 h, fluorescence intensity nucleus vs cytoplasm
  anticancer agent (DOX) delivered into the nucleus (ratio of accumulation in the nucleus): 21%
[9]; confocal images
  location of red fluorescence (DOX) in the cells: mainly in the region other than the nucleus
[10]
  degradation of prodrug nanoparticles in the cancer cells (MALDI-TOF): slightly low sensitivity to cathepsin B

## COc1cccc2c1C(=O)c1c(O)c3c(c(O)c1C2=O)C[C@@](O)(C(=O)CO)C[C@@H]3O[C@H]1C[C@H](N)[C@H](O)[C@H](C)O1 [DOX, Doxorubicin hydrochloride]
[2]; 4 mg/kg i.v., confocal, DAPI
  red fluorescence (DOX) in cancer tissue sections: hardly observed
[2]; 4 mg/kg i.v., test group 1
  fluorescence intensity in kidney tissues relative to cancer tissues: 8.8 times
[3]; H&E, after treatment
  histopathological analysis of cancer tissue: relatively weak damage of the cancer tissue
[3]; after treatment
  TUNEL assay of cancer tissue (green fluorescence): weak green fluorescence
[3]; [16]
  all the mice died within: ≤ 20 days
  death observed within: ≤ 5 days
[11]
  systemic toxicity: severe systemic toxicity
[12]
  location of fluorescence of anticancer agent (DOX): penetrated into the cell nucleus
[4]; Homo sapiens, HT-29
  IC50: 0.12 µM
[13]
  location of fluorescence of anticancer agent (DOX): penetrated into the cell nucleus
[5]
  histochemical analysis of organ tissues (H&E): damaged severely
[5]; 3 and 4 mg/kg
  body weight decrease: ≥ 9%
[7]; HT29 versus H9C2
  survival rate in tumor cells versus normal cells: no difference in the survival rate
[7]; Rattus norvegicus, H9c2
  IC50: 0.12 µM
[8]
  hematotoxicity: significant hematotoxicity
  histochemical analysis of organ tissues (H&E): normal tissues were destroyed and damaged
  body weight change: rapid body weight decrease
[8]; DOX 3 and 4 mg/kg
  all the mice died within: ≤ 20 days
  levels of hemoglobin and hematocrit: outside normal ranges

## FLRRG-{DOX} (not fully specified (N-terminus); printed as FLRRG-DOX)
[14]
  degradation ratio (%): < 5%

## FRRLG-{DOX} (not fully specified (N-terminus); printed as FRRLG-DOX)
[14]
  degradation ratio (%): < 5%
